Laboratory results as given in patent US20120093726A1, “Radiolabeled Fluorine Derivatives of Methionine” (priority 2009, published 2012).

Assays:
[1] = test system: A431 squamous cell carcinoma xenografts; experiment: PET imaging of tracer uptake in A431 tumoured mice; format: in vivo, Balb/c Nude mice; conditions: intravenous, PET at 90 minutes post-tracer injection
Method: (§1) In vivo imaging studies were performed on a Phillips Allegro™ small animal imaging system in mice implanted with A431 squamous cell carcinoma and HT-29 colon carcinoma xenografts on the left leg of Balb/c Nude mice. Approximately 400 μCi of each of D and L ^18FPM in 100 μl saline were injected intravenously and PET imaging performed at 90 minutes post-tracer injection. A comparison with FDG (fluorodeoxyglucose) uptake was also performed.

[2] = test system: HT-29 colon carcinoma xenografts; experiment: PET imaging of tracer uptake in HT29 tumoured mice; format: in vivo, Balb/c Nude mice; conditions: intravenous, PET at 90 minutes post-tracer injection
Method: as §1

[3] = test system: various types of tumour cells; experiment: Cell uptake study, panel of tumour cell lines; format: cell-based, human; conditions: for uptake into tumour cells: particularly MCF-7, U87MG, MiaPaCa2 and A375 cell lines
Method: (§2) The human A375 (malignant melanoma), A431 (epidermoid carcinoma), HT29 (colorectal adenocarcinoma), MCF-7 (breast adenocarcinoma), MDA-MB-231 (breast adenocarcinoma), PC-3 (prostate adenocarcinoma) tumour cells were grown in RPMI-1640 medium supplemented with 10% fetal bovine serum (FBS) and 2 mM L-glutamine. The human H460 (large cell lung carcinoma) cell line was grown in RPMI-1640 supplemented with 10% FBS, 1 mM L-glutamine and 1 mM sodium pyruvate. The MiaPaCa2 human pancreatic carcinoma cell line was grown in Dulbecco's Modified Eagle medium supplemented with 10% FBS, 2.5% horse serum, 1 mM L-glutamine and 1 mM sodium pyruvate. The human U87MG glioblastoma cell line was cultured in Minimum Essential Medium supplemented with 10% FBS, 2 mM L-glutamine and 1 mM sodium pyruvate. Cells were maintained in 175 cm^2 flasks in a 5% CO2, 37° C. humidified incubator. Cells were passaged routinely every 7 days and the media changed twice weekly.
(§3) One day prior to the experiments, cell cultures were trypsinised with a solution of 0.05% trypsin in PBS without Ca^2+ and Mg^2+ and containing 0.02% EDTA. Cells were seeded in 24-well culture dishes in complete medium and left to attach overnight. For MCF-7 cells, 3×10^5 cells were seeded, for all other cell lines, 2.5×10^5 cells were seeded.
(§4) On the day of the study, the cells were counted and the viability assessed in triplicate for each cell line. Before the incubation with radiolabelled FPM, cells were washed once with PBS containing Ca^2+ and Mg^2+ to remove all traces of the culture medium. The radiolabelled FPM was formulated in PBS containing Ca^2+ and Mg^2+. Aliquots of 500 μL (˜10 μCi) of freshly prepared FPM were added and the cells were incubated in triplicate at 37° C. for 2, 15, 30, 60, 120, 180 and 240 min. After stopping the tracer uptake with 1 mL of ice-cold PBS, cells were solubilised with 500 μL of 0.2N NaOH and the activity was measured with a gamma counter. The results were expressed as percent of applied dose per 1×10^5 cells.

[4] = test system: MiaPaCa2 human pancreatic carcinoma cell line; experiment: Cell uptake study, MiaPaCa2; format: cell-based; conditions: MiaPaCa2 tumour cell line
Method: as §2, with “weekly. […]” for “weekly.”
(§5) On the day of the study, the cells were counted and the viability assessed in triplicate for each cell line. […] After stopping the tracer uptake with 1 mL of ice-cold PBS, cells were solubilised with 500 μL of 0.2N NaOH and the activity was measured with a gamma counter. The results were expressed as percent of applied dose per 1×10^5 cells.

[5] = test system: MCF-7 (breast adenocarcinoma) tumour cells; experiment: Cell uptake study, MCF-7; format: cell-based, human; conditions: for uptake, rank among the cell lines: MCF-7 breast tumour cell line, 37° C., 2-240 min; for time for which uptake increased before staying at the same level: MCF-7 cell line
Method: as §2, §3, §4

[6] = test system: sodium-independent L type transport system in tumour cell lines; experiment: Competitive inhibition study of tracer uptake, all cell lines; format: cell-based, human; conditions: for tracer uptake in the presence of BCH: all cell lines, BCH 12.5 mmol/L aliquot, 30 min, 37° C.; for transport mechanism of cell uptake: from inhibition by BCH and MeAIB
Method: as §2, §3
Inhibitor studies were carried out to investigate the transport mechanism involved in the uptake of FPM in tumour cells. The following amino acid transport inhibitors were used; 2-amino-bicyclo[2.2.1]-heptane-2-carboxylic acid (BCH) and N-methyl-α-aminoisobutyric acid (MeAIB) for the sodium-independent L type transport system and the A type amino acid transport system respectively.
On the day of the study, the cells were counted and the viability assessed in triplicate for each cell line. Before the incubation with radiolabelled FPM, cells were washed once with PBS containing Ca^2+ and Mg^2+ to remove all traces of the culture medium. Aliquots of 400 μL of inhibitor (12.5 mmol/L in PBS with Ca^2+ and Mg^2+) or PBS (for controls) were added to cells prior to the addition of radiolabelled FPM. Aliquots of 100 μL (about 10 μCi) of freshly prepared FPM were added and the cells were incubated in triplicate at 37° C. for 30 min. After stopping the tracer uptake with 1 mL of ice-cold PBS, cells were solubilised with 500 μL of 0.2N NaOH and the activity was measured with a gamma counter. The results were expressed as percent of applied dose per 1×10^5 cells. The percentage of uptake in the treatment groups, relative to the control group was determined.

MiaPaCa2 cells = experiment: Competitive inhibition study of tracer uptake, MiaPaCa2; format: cell-based, human; conditions: MeAIB 12.5 mmol/L aliquot, 30 min, 37° C.
Method: as §2, with “weekly. […]” for “weekly.”
as §5, with “cells. The percentage of uptake in the treatment groups, relative to the control group was determined.” for “cells.”

H460 cells = experiment: Competitive inhibition study of tracer uptake, H460; format: cell-based, human; conditions: MeAIB 12.5 mmol/L aliquot, 30 min, 37° C.
Method: as §2, with “weekly. […]” for “weekly.”
as §5, with “cells. The percentage of uptake in the treatment groups, relative to the control group was determined.” for “cells.”

[7] = test system: HT29 (colorectal adenocarcinoma) tumour cells; experiment: Cell uptake study, HT29; format: cell-based, human; conditions: HT29 colon cell line
Method: as §2, with “weekly. […]” for “weekly.”
as §5

HT29 cells = experiment: Competitive inhibition study of tracer uptake, HT29; format: cell-based, human; conditions: MeAIB 12.5 mmol/L aliquot, 30 min, 37° C.
Method: as §2, with “weekly. […]” for “weekly.”
as §5, with “cells. The percentage of uptake in the treatment groups, relative to the control group was determined.” for “cells.”

[8] = cited from earlier work
[9] = Radiochemical purity and stability in aqueous formulations (HPLC); format: physicochemical
Method: The stability of [^18F]-L-FPHCys and [^18F]-D-FPHCys formulated in each of the following solutions: • 1) 5% EtOH/95% phosphate buffer, pH 6, 0.15 M (HLPC solvent) • 2) saline • 3) Dulbecco's phosphate buffered saline, pH 7 • 4) Phosphate buffer, pH 7. were analysed by HPLC using a Gemini 150×4.6 mm, 5 μm, eluting with 100% Phosphate Buffer, pH 11.5, 0.05 M at 1 mL/min, λ=226 nm.

| Compound | percent injected dose (% ID) in tumour [1] [%] | tumour to background ratio [1] | percent injected dose (% ID) in tumour [2] [%] | tumour to background ratio [2] | uptake into tumour cells [3] | time of peak uptake [4] | uptake, rank among the cell lines [5] | time for which uptake increased before staying at the same level [5] [min] | tracer uptake in the presence of BCH [6] | transport mechanism of cell uptake [6] | tracer uptake in the presence of MeAIB, % of control uptake (H460 cells) [%] | uptake, rank among the cell lines [7] | also measured |
| --- | --- | --- | --- | --- | --- | --- | --- | --- | --- | --- | --- | --- | --- |
| OC[C@H]1OC(O)[C@H]([18F])[C@@H](O)[C@@H]1O (stereo partly drawn) [FDG, [^18F]Fluoro-2-deoxy-D-glucose, reference compound] | 5.84 | 3.33 | 2.37 | 2.11 | – | – | – | – | – | – | – | – | – |
| N[C@@H](CCSCCC[18F])C(=O)O [[^18F]-L-FPHCys, S-(3-[^18F]fluoropropyl)-L-homocysteine] | 2.12 | 5.39 | 2.13 | 2.45 | high uptake | 30 | highest | 120 | significantly inhibited | predominantly taken up by cells via the sodium-independent L type transport system | 70 | lowest uptake | uptake compared with the other enantiomer ([3]; all cell lines): higher; tracer uptake in the presence of MeAIB, % of control uptake (MiaPaCa2 cells): 79%; tracer uptake in the presence of MeAIB, % of control uptake (HT29 cells): 84% |
| N[C@@H](CCSCC[18F])C(=O)O [[^18F]FEHCys, S-(2-[^18F]fluoroethyl)-L-homocysteine] | – | – | – | – | – | – | – | – | – | – | – | – | stability in aqueous systems [8]: considerable instability |
| N[C@@H](CCSCCC[18F])C(=O)O [[^18F]FPHCys, S-(3-[^18F]fluoropropyl)homocysteine] | – | – | – | – | – | – | – | – | – | – | – | – | stability in an aqueous environment compared with the S-ethyl homologue ([9]; aqueous environment): substantially more stable |
| S-(3-[^18F]fluoropropyl)-D-homocysteine [[^18F]-D-FPHCys] | 1.96 | 7.86 | 0.75 | 2.10 | high uptake | 30 min | highest | 120 | significantly inhibited | predominantly taken up by cells via the sodium-independent L type transport system | 76 | lowest uptake | % ROI of product peak, F18 chromatogram (radiochemical purity) ([9]; 5% EtOH/95% phosphate buffer, pH 6, 0.15 M (HPLC solvent), t=0): 99.74%; % ROI of product peak, F18 chromatogram (radiochemical purity) ([9]; 5% EtOH/95% phosphate buffer, pH 6, 0.15 M (HPLC solvent), t=4 h): 99.06%; % ROI of product peak, F18 chromatogram (radiochemical purity) ([9]; Dulbecco's phosphate buffered saline, pH 7, t=0): 98.97%; % ROI of product peak, F18 chromatogram (radiochemical purity) ([9]; Dulbecco's phosphate buffered saline, pH 7, t=4 h): 96.20%; % ROI of product peak, F18 chromatogram (radiochemical purity) ([9]; PBS (phosphate buffer, pH 7), t=0): 98.44%; % ROI of product peak, F18 chromatogram (radiochemical purity) ([9]; PBS (phosphate buffer, pH 7), t=4 h): 96.51%; % ROI of product peak, F18 chromatogram (radiochemical purity) ([9]; saline, t=0): 99.30%; % ROI of product peak, F18 chromatogram (radiochemical purity) ([9]; saline, t=4 h): 95.23% |
